Results published in PubChem BioAssay (NCI).
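Five compound concentrations were applied to cells in 96-well plates for 48 hours; endpoints were derived by simple linear interpolation of the resulting dose-response curve. At the TGI there is no net growth.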

Legend:
Experiment in all cases: NCI anticancer screen, dose series, 48 h
[1] = system: RXF 393 renal
[2] = system: SK-OV-3 ovarian
[3] = system: EKVX NSCLC
[4] = system: RPMI-8226 leukemia
[5] = system: CCRF-CEM leukemia
[6] = system: MDA-MB-231 breast
[7] = system: HOP-92 NSCLC
[8] = system: OVCAR-4 ovarian
[9] = system: MOLT-4 leukemia
[10] = system: UACC-257 melanoma
[11] = system: UACC-62 melanoma
[12] = system: NCI-H23 lung
[13] = system: M14 melanoma
[14] = system: HCT-116 colon
[15] = system: TK-10 renal
[16] = system: SNB-75 CNS
[17] = system: SNB-19 CNS
[18] = system: HCT-15 colon
[19] = system: KM12 colon
[20] = system: SK-MEL-2 melanoma
[21] = system: ACHN renal
[22] = system: OVCAR-3 ovarian
[23] = system: NCI/ADR-RES ovarian
[24] = system: MDA-MB-435
[25] = system: HCC-2998 colon
[26] = system: COLO 205 colon
[27] = system: MDA-N
[28] = system: SF-539 CNS
[29] = system: NCI-H460 lung
[30] = system: NCI-H522 lung
[31] = system: IGROV1 ovarian
[32] = system: SR leukemia
[33] = system: SF-295 CNS
[34] = system: K-562 leukemia
[35] = system: U251 CNS
[36] = system: LOX IMVI melanoma
[37] = system: A549 NSCLC
[38] = system: OVCAR-5 ovarian
[39] = system: HT29 colon
[40] = system: BT-549 breast
[41] = system: SW-620 colon
[42] = system: NCI-H226 lung
[43] = system: MALME-3M melanoma
[44] = system: DU-145 prostate
[45] = system: MCF7 breast
[46] = system: SK-MEL-28 melanoma
[47] = system: T-47D breast
[48] = system: CAKI-1 renal
[49] = system: PC-3 prostate
[50] = system: UO-31 renal
[51] = system: SK-MEL-5 melanoma
[52] = system: 786-0 renal
[53] = system: HS 578T breast
[54] = system: OVCAR-8 ovarian
[55] = system: A498 renal
[56] = system: HOP-62 NSCLC
[57] = system: SF-268 CNS
[58] = system: SN12C renal
[59] = system: HL-60(TB) leukemia

## O=C(CC(O)(C(F)(F)F)C(F)(F)F)C(c1ccccc1)C(O)(C(F)(F)F)C(F)(F)F (configuration not stated)
[1]
  TGI: 25.2 µM
[2]
  TGI: 88.8 µM
[3]
  TGI: > 100 µM
[4]
  TGI: > 100 µM
[5]
  TGI: > 100 µM
[6]
  TGI: > 100 µM
[7]
  TGI: 13 µM
[8]
  TGI: > 100 µM
[9]
  TGI: > 100 µM
[10]
  TGI: > 100 µM
[11]
  TGI: > 100 µM
[12]
  TGI: > 100 µM
[13]
  TGI: > 100 µM
[14]
  TGI: > 100 µM
[15]
  TGI: > 100 µM
[16]
  TGI: 27.2 µM
[17]
  TGI: > 100 µM
[18]
  TGI: > 100 µM
[19]
  TGI: > 100 µM
[20]
  TGI: > 100 µM
[21]
  TGI: 79.5 µM
[22]
  TGI: 83.4 µM
[23]
  TGI: > 100 µM
[24]
  TGI: > 100 µM
[25]
  TGI: > 100 µM
[26]
  TGI: > 100 µM
[27]
  TGI: > 100 µM
[28]
  TGI: 94.1 µM
[29]
  TGI: > 100 µM
[30]
  TGI: > 100 µM
[31]
  TGI: > 100 µM
[32]
  TGI: > 100 µM
[33]
  TGI: > 100 µM
[34]
  TGI: > 100 µM
[35]
  TGI: > 100 µM
[36]
  TGI: > 100 µM
[37]
  TGI: > 100 µM
[38]
  TGI: > 100 µM
[39]
  TGI: > 100 µM
[40]
  TGI: > 100 µM
[41]
  TGI: > 100 µM
[42]
  TGI: > 100 µM
[43]
  TGI: > 100 µM
[44]
  TGI: > 100 µM
[45]
  TGI: > 100 µM
[46]
  TGI: > 100 µM
[47]
  TGI: > 100 µM
[48]
  TGI: > 100 µM
[49]
  TGI: > 100 µM
[50]
  TGI: > 100 µM
[51]
  TGI: > 100 µM
[52]
  TGI: > 100 µM
[53]
  TGI: 41.8 µM
[54]
  TGI: > 100 µM
[55]
  TGI: > 100 µM

## c1ccc(C2=NNC3c4ccccc4-c4ccccc4N3C2)cc1 (configuration not stated)
[56]
  TGI: > 100 µM
[1]
  TGI: > 100 µM
[57]
  TGI: > 100 µM
[2]
  TGI: > 100 µM
[3]
  TGI: > 100 µM
[4]
  TGI: 57.8 µM
[6]
  TGI: > 100 µM
[7]
  TGI: > 100 µM
[8]
  TGI: > 100 µM
[9]
  TGI: 56.9 µM
[10]
  TGI: 61.6 µM
[58]
  TGI: > 100 µM
[11]
  TGI: 35.2 µM
[12]
  TGI: 67.8 µM
[13]
  TGI: > 100 µM
[14]
  TGI: > 100 µM
[15]
  TGI: 91.7 µM
[16]
  TGI: 66.1 µM
[17]
  TGI: > 100 µM
[18]
  TGI: > 100 µM
[19]
  TGI: > 100 µM
[20]
  TGI: 45.8 µM
[21]
  TGI: > 100 µM
[22]
  TGI: > 100 µM
[23]
  TGI: > 100 µM
[24]
  TGI: 68.1 µM
[26]
  TGI: 37.3 µM
[27]
  TGI: > 100 µM
[28]
  TGI: 50.5 µM
[29]
  TGI: 53.3 µM
[30]
  TGI: 80.3 µM
[31]
  TGI: > 100 µM
[32]
  TGI: 56.8 µM
[33]
  TGI: > 100 µM
[34]
  TGI: 82 µM
[59]
  TGI: 6.91 µM
[35]
  TGI: > 100 µM
[36]
  TGI: > 100 µM
[37]
  TGI: > 100 µM
[38]
  TGI: > 100 µM
[39]
  TGI: > 100 µM
[40]
  TGI: > 100 µM
[41]
  TGI: > 100 µM
[42]
  TGI: 71.7 µM
[43]
  TGI: 83.1 µM
[44]
  TGI: > 100 µM
[45]
  TGI: > 100 µM
[46]
  TGI: > 100 µM
[47]
  TGI: 92.4 µM
[48]
  TGI: > 100 µM
[49]
  TGI: 65.5 µM
[50]
  TGI: > 100 µM
[51]
  TGI: 29.4 µM
[52]
  TGI: > 100 µM
[53]
  TGI: > 100 µM
[54]
  TGI: > 100 µM
[55]
  TGI: 98.5 µM
